Source: ChEMBL document CHEMBL4229370, “Discovery of novel quinazolinone derivatives as high potent and selective PI3Kδ and PI3Kδ/γ inhibitors” (Eur J Med Chem, 2018)
Each block holds one molecule with its values, some of them ahead of it.

Key:
[1] = biological target: T1, Phosphatidylinositol 4,5-bisphosphate 3-kinase catalytic subunit delta isoform (Homo sapiens) (UniProt O00329); experiment: Inhibition of PI3Kdelta (unknown origin) at 1 uM using Biotin-S11S12 as substrate after 120 mins in presence of ATP by ADPGlo luminescence assay
T1 sequence (whole entry): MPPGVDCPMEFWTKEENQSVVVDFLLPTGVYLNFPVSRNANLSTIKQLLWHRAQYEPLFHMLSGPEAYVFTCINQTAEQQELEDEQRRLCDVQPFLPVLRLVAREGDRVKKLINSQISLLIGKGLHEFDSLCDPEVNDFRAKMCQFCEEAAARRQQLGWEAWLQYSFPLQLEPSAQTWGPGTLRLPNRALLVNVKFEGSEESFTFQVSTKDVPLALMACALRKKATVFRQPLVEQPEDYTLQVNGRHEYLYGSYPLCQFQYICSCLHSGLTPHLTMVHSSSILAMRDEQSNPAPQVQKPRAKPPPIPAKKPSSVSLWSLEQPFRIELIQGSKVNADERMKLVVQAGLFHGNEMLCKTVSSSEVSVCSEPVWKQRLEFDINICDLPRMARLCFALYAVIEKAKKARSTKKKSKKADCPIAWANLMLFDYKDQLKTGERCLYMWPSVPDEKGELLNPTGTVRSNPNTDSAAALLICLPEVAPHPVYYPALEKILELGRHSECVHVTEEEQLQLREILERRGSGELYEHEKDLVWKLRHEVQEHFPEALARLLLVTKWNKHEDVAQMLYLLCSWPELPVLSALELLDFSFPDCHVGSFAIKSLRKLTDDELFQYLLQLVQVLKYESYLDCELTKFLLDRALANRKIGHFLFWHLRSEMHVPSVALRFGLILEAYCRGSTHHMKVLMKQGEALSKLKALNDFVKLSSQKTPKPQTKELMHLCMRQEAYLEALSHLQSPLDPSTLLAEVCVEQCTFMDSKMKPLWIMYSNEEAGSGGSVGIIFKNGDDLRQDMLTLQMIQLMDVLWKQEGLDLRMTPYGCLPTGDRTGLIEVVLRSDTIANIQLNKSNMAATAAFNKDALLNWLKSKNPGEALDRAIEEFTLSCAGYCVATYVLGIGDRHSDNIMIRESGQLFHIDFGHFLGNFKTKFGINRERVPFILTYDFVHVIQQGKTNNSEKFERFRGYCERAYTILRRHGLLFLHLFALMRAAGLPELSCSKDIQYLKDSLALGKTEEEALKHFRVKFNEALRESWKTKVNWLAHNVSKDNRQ

[2] = biological target: T2, Phosphatidylinositol 4,5-bisphosphate 3-kinase catalytic subunit delta isoform (Homo sapiens, UniProt O00329); experiment: Inhibition of PI3Kdelta (unknown origin) using Biotin-S11S12 as substrate after 120 mins in presence of ATP by ADPGlo luminescence assay
T2 sequence (O00329 whole entry): T1 sequence (whole entry)

SU-DHL-6 = experiment: Growth inhibition of human SU-DHL6 cells by CellTiter-Glo assay; type: functional
[3] = Plasma concentration in Sprague-Dawley rat at 10 mg/kg, po after 0.5 hrs; type: ADME, organism-based
Homo sapiens [4] = species on record: Homo sapiens; experiment: Selectivity index, ratio of IC50 for PI3Kbeta (unknown origin) to IC50 for PI3Kdelta (unknown origin)
[5] = AUC (0 to infinity) in Sprague-Dawley rat at 1 mg/kg, iv; type: ADME, organism-based; set-up: dose 1 mg/kg, time infinity, route intravenous; conditions: in vivo
[6] = MRT (infinity) in Sprague-Dawley rat at 1 mg/kg, iv; type: ADME, organism-based; conditions: in vivo
[7] = Oral bioavailability in Sprague-Dawley rat at 10 mg/kg; type: ADME, organism-based; conditions: in vivo
[8] = Terminal half-life in Sprague-Dawley rat at 10 mg/kg, po; type: ADME, organism-based; conditions: in vivo, read-out: beta t1/2 (converted)
[9] = biological target: Phosphatidylinositol 4,5-bisphosphate 3-kinase catalytic subunit alpha isoform (Homo sapiens, UniProt P42336); experiment: Inhibition of PI3Kalpha (unknown origin) using Biotin-S11S12 as substrate after 60 mins in presence of ATP by Kinase Glo luminescence assay
[10] = Plasma concentration in Sprague-Dawley rat at 10 mg/kg, po after 2 hrs; type: ADME, organism-based
Homo sapiens [11] = species on record: Homo sapiens; experiment: Selectivity index, ratio of IC50 for PI3Kalpha (unknown origin) to IC50 for PI3Kdelta (unknown origin)
[12] = Plasma concentration in Sprague-Dawley rat at 10 mg/kg, po after 1 hrs; type: ADME, organism-based
[13] = Plasma concentration in Sprague-Dawley rat at 1 mg/kg, iv after 1 hrs; type: ADME, organism-based
[14] = Plasma concentration in Sprague-Dawley rat at 1 mg/kg, iv after 4 hrs; type: ADME, organism-based
[15] = biological target: Phosphatidylinositol 4,5-bisphosphate 3-kinase catalytic subunit gamma isoform (Homo sapiens, UniProt P48736); experiment: Inhibition of PI3Kgamma (unknown origin) using Biotin-S11S12 as substrate after 60 mins in presence of ATP by ADPGlo luminescence assay
[16] = Plasma concentration in Sprague-Dawley rat at 10 mg/kg, po after 0.083 hrs; type: ADME, organism-based
[17] = Plasma concentration in Sprague-Dawley rat at 1 mg/kg, iv after 2 hrs; type: ADME, organism-based
[18] = Clearance in Sprague-Dawley rat at 1 mg/kg, iv; type: ADME, organism-based; conditions: in vivo
[19] = Plasma concentration in Sprague-Dawley rat at 10 mg/kg, po after 24 hrs; type: ADME, organism-based; conditions: in vivo, BLD = below limit of detection
[20] = Plasma concentration in Sprague-Dawley rat at 10 mg/kg, po after 8 hrs; type: ADME, organism-based
[21] = Plasma concentration in Sprague-Dawley rat at 1 mg/kg, iv after 0.25 hrs; type: ADME, organism-based
[22] = Plasma concentration in Sprague-Dawley rat at 10 mg/kg, po after 4 hrs; type: ADME, organism-based
[23] = Plasma concentration in Sprague-Dawley rat at 10 mg/kg, po after 0.25 hrs; type: ADME, organism-based
[24] = Terminal half-life in Sprague-Dawley rat at 1 mg/kg, iv; type: ADME, organism-based; conditions: in vivo, read-out: beta t1/2 (converted)
[25] = AUClast in Sprague-Dawley rat at 1 mg/kg, iv; type: ADME, organism-based; set-up: dose 1 mg/kg, time 0 - last, route intravenous; conditions: in vivo
[26] = biological target: Phosphatidylinositol 4,5-bisphosphate 3-kinase catalytic subunit beta isoform (Homo sapiens, UniProt P42338); experiment: Inhibition of PI3Kbeta (unknown origin) using Biotin-S11S12 as substrate after 60 mins in presence of ATP by ADPGlo luminescence assay
[27] = Plasma concentration in Sprague-Dawley rat at 1 mg/kg, iv after 8 hrs; type: ADME, organism-based
[28] = AUC (0 to infinity) in Sprague-Dawley rat at 10 mg/kg, po; type: ADME, organism-based; set-up: dose 10 mg/kg, time infinity, route oral; conditions: in vivo
[29] = Plasma concentration in Sprague-Dawley rat at 1 mg/kg, iv after 0.083 hrs; type: ADME, organism-based
[30] = Volume of distribution at steady state in Sprague-Dawley rat at 1 mg/kg, iv; type: ADME, organism-based; conditions: in vivo, read-out: Vdss
[31] = Plasma concentration in Sprague-Dawley rat at 1 mg/kg, iv after 0.5 hrs; type: ADME, organism-based
[32] = AUClast in Sprague-Dawley rat at 10 mg/kg, po; type: ADME, organism-based; set-up: dose 10 mg/kg, time 0 - last, route oral; conditions: in vivo
Homo sapiens [33] = species on record: Homo sapiens; experiment: Selectivity index, ratio of IC50 for PI3Kgamma (unknown origin) to IC50 for PI3Kdelta (unknown origin)
[34] = Tmax in Sprague-Dawley rat at 10 mg/kg, po; type: ADME, organism-based; conditions: in vivo
[35] = Plasma concentration in Sprague-Dawley rat at 1 mg/kg, iv after 24 hrs; type: ADME, organism-based; conditions: in vivo, BLD = below limit of detection
[36] = Cmax in Sprague-Dawley rat at 10 mg/kg, po; type: ADME, organism-based; set-up: dose 10 mg/kg, route oral; conditions: in vivo

Sequence of Phosphatidylinositol 4,5-bisphosphate 3-kinase catalytic subunit gamma isoform (P48736 whole entry, canonical isoform): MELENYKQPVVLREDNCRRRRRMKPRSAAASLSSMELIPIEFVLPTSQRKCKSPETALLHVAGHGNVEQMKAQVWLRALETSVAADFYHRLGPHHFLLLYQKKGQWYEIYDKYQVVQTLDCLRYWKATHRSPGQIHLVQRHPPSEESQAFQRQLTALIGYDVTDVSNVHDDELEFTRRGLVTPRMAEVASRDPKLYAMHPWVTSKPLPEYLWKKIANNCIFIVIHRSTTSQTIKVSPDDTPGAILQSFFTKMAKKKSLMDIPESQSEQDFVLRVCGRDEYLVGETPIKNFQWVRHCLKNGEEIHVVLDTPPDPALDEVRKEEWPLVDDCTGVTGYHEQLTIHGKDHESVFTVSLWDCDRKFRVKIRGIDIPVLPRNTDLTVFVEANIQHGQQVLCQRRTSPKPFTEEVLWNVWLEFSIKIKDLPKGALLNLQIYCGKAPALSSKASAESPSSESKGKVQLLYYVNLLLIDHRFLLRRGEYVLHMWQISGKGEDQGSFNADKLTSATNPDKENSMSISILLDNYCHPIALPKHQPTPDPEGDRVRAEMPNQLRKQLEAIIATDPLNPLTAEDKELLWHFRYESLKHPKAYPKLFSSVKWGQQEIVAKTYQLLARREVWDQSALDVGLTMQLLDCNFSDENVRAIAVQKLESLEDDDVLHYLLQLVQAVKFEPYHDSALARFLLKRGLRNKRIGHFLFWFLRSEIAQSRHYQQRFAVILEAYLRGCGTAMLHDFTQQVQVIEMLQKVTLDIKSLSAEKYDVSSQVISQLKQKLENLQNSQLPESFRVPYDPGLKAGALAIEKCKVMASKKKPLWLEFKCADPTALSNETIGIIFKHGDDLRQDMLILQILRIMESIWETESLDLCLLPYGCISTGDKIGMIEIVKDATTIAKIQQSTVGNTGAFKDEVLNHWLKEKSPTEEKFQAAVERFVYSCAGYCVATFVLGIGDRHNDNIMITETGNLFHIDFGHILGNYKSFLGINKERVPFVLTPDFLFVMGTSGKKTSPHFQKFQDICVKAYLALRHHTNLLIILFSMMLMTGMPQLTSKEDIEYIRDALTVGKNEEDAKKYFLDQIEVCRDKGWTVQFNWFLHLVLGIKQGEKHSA
Sequence of Phosphatidylinositol 4,5-bisphosphate 3-kinase catalytic subunit alpha isoform (P42336 whole entry, canonical isoform): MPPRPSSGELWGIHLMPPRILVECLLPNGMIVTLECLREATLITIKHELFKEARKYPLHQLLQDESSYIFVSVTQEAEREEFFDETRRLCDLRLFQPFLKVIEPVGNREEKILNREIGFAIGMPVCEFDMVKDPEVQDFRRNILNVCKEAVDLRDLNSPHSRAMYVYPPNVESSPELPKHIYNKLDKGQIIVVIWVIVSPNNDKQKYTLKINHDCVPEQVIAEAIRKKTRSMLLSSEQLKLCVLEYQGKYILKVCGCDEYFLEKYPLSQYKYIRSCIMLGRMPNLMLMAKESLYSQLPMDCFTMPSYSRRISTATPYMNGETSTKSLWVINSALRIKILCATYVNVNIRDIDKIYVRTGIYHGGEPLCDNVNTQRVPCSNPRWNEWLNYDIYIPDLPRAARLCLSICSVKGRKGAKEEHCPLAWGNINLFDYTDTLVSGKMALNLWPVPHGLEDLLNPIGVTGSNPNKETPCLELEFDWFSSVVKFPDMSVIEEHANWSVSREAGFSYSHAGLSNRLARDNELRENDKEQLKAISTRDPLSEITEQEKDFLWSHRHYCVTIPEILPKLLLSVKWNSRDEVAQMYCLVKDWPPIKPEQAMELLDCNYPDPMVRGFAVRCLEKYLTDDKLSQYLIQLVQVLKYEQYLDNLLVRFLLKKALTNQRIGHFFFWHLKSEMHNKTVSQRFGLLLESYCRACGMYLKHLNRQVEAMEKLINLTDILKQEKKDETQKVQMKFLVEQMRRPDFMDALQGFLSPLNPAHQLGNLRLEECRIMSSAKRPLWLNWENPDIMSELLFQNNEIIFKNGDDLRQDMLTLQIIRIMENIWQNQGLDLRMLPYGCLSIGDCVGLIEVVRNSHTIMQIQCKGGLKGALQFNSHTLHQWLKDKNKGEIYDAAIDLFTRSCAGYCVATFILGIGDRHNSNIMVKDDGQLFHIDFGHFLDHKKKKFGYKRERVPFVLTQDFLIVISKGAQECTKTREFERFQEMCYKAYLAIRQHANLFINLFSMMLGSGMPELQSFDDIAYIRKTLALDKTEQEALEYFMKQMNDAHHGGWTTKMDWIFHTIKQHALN
Sequence of Phosphatidylinositol 4,5-bisphosphate 3-kinase catalytic subunit beta isoform (P42338 whole entry, canonical isoform): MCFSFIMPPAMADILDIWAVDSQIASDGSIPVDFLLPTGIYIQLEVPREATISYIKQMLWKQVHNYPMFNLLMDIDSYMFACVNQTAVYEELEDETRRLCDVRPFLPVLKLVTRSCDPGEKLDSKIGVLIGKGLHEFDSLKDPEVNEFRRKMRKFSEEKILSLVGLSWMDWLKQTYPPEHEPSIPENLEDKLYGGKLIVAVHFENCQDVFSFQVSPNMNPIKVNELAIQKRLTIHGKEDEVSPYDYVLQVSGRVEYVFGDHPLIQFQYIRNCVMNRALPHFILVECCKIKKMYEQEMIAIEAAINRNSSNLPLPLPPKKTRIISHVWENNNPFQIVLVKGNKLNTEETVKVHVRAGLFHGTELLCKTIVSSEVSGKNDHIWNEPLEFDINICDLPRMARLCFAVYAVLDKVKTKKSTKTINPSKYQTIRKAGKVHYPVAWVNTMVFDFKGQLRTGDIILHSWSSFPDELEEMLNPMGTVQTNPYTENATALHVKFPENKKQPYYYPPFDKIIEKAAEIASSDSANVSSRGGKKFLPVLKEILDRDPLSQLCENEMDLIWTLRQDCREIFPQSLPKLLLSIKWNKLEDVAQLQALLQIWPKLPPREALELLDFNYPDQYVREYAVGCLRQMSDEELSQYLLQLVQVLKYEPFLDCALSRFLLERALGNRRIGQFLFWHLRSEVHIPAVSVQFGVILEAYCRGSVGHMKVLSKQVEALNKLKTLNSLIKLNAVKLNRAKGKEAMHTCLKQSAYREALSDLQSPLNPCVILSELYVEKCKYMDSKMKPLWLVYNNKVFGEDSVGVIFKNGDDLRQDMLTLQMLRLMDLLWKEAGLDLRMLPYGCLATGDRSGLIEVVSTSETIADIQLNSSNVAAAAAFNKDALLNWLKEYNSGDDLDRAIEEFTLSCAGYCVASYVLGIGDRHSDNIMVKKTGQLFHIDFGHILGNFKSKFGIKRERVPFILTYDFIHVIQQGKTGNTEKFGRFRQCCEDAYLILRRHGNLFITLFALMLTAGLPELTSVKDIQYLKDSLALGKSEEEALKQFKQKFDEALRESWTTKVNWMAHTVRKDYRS

inhibition [1]: 94.7% | IC50 [2]: 41 nM
SMILES: COc1ccc(-c2nn(Cc3nc4cccc(F)c4c(=O)n3-c3c(C)cccc3C)c3ncnc(N)c23)cn1

inhibition [1]: 89.1% | IC50 [2]: 84 nM
SMILES: Cc1cccc(C)c1-n1c(Cn2nc(-c3ccc4c(c3)OCO4)c3c(N)ncnc32)nc2cccc(F)c2c1=O

inhibition [1]: 89.6% | IC50 [2]: 106 nM
SMILES: Cc1ccccc1-n1c(Cn2nc(-c3ccc4c(c3)OCO4)c3c(N)ncnc32)nc2cccc(F)c2c1=O

inhibition [1]: 91.9% | GI50 (SU-DHL-6): 42 nM
SMILES: CC[C@H](Nc1ncnc2[nH]cnc12)c1nc2cccc(F)c2c(=O)n1-c1ccccc1 [IDELALISIB]

inhibition [1]: 29.6%
SMILES: Cc1cccc(C)c1-n1c(Cn2nc(-c3cccc(OC(F)(F)F)c3)c3c(N)ncnc32)nc2cccc(F)c2c1=O

concentration at 0.5 h [3]: 379 ng/mL | Ratio IC50 (Homo sapiens [4]): 828 | AUC(0-inf) [5]: 1020 ng·h/mL | MRT inf [6]: 30.6 min | bioavailability [7]: 34.9% | half-life [8]: 101 min | IC50 [9]: 11800 nM | inhibition [1]: 96.8% | concentration at 2 h [10]: 192 ng/mL | IC50 [2]: 8.4 nM | Ratio IC50 (Homo sapiens [11]): 1410 | concentration at 1 h [12]: 318 ng/mL | concentration at 1 h [13]: 64.3 ng/mL | concentration at 4 h [14]: 2.58 ng/mL | IC50 [15]: 62 nM | concentration at 0.083 h [16]: 198 ng/mL | concentration at 2 h [17]: 13.1 ng/mL | clearance [18]: 16.5 mL/min/kg | Cp [19]: Bld | concentration at 8 h [20]: 6.5 ng/mL | concentration at 0.25 h [21]: 541 ng/mL | concentration at 4 h [22]: 9.86 ng/mL | concentration at 0.25 h [23]: 343 ng/mL | half-life [24]: 37.2 min | AUC(0-t) [25]: 1010 ng·h/mL | IC50 [26]: 6960 nM | GI50 (SU-DHL-6): 222 nM | concentration at 8 h [27]: 1.83 ng/mL | AUC(0-inf) [28]: 3550 ng·h/mL | concentration at 0.083 h [29]: 1020 ng/mL | Vd [30]: 0.45 L/kg | concentration at 0.5 h [31]: 250 ng/mL | AUC(0-t) [32]: 3530 ng·h/mL | Ratio IC50 (Homo sapiens [33]): 7 | Tmax [34]: 50 min | Cp [35]: Bld | Cmax [36]: 387 ng/mL
SMILES: COc1ccc(-c2nn(Cc3nc4cccc(F)c4c(=O)n3-c3c(C)cccc3C)c3ncnc(N)c23)cc1OC

concentration at 0.5 h [3]: 379 ng/mL | Ratio IC50 (Homo sapiens [4]): 392 | AUC(0-inf) [5]: 473 ng·h/mL | MRT inf [6]: 30.6 min | bioavailability [7]: 17.3% | half-life [8]: 78.6 min | IC50 [9]: 31300 nM | inhibition [1]: 96.8% | concentration at 2 h [10]: 192 ng/mL | IC50 [2]: 8.6 nM | Ratio IC50 (Homo sapiens [11]): 3640 | concentration at 1 h [12]: 318 ng/mL | concentration at 1 h [13]: 64.3 ng/mL | concentration at 4 h [14]: 2.58 ng/mL | IC50 [15]: 363 nM | concentration at 0.083 h [16]: 198 ng/mL | concentration at 2 h [17]: 13.1 ng/mL | clearance [18]: 36 mL/min/kg | Cp [19]: Bld | concentration at 8 h [20]: 6.5 ng/mL | concentration at 0.25 h [21]: 541 ng/mL | concentration at 4 h [22]: 9.86 ng/mL | concentration at 0.25 h [23]: 343 ng/mL | half-life [24]: 50.4 min | AUC(0-t) [25]: 471 ng·h/mL | IC50 [26]: 3370 nM | GI50 (SU-DHL-6): 149 nM | concentration at 8 h [27]: 1.83 ng/mL | AUC(0-inf) [28]: 820 ng·h/mL | concentration at 0.083 h [29]: 1020 ng/mL | Vd [30]: 1.11 L/kg | concentration at 0.5 h [31]: 250 ng/mL | AUC(0-t) [32]: 808 ng·h/mL | Ratio IC50 (Homo sapiens [33]): 42 | Tmax [34]: 50 min | Cp [35]: Bld | Cmax [36]: 387 ng/mL
SMILES: Cc1cccc(C)c1-n1c(Cn2nc(-c3ccc4[nH]ccc4c3)c3c(N)ncnc32)nc2cccc(F)c2c1=O

inhibition [1]: 92% | IC50 [2]: 81 nM
SMILES: Cc1cccc(C)c1-n1c(Cn2nc(-c3cnc4ccccc4c3)c3c(N)ncnc32)nc2cccc(F)c2c1=O

inhibition [1]: 90.8% | IC50 [2]: 26 nM
SMILES: COc1ccc(-c2nn(Cc3nc4cccc(F)c4c(=O)n3-c3ccccc3C)c3ncnc(N)c23)cc1OC

inhibition [1]: 94.7% | IC50 [2]: 16 nM
SMILES: Cc1ccccc1-n1c(Cn2nc(-c3ccc4[nH]ccc4c3)c3c(N)ncnc32)nc2cccc(F)c2c1=O

inhibition [1]: 90% | IC50 [2]: 86 nM
SMILES: Cc1ccccc1-n1c(Cn2nc(-c3cnc4ccccc4c3)c3c(N)ncnc32)nc2cccc(F)c2c1=O

inhibition [1]: 73% | IC50 [2]: 227 nM
SMILES: Cc1ccccc1-n1c(Cn2nc(-c3ccc4cc(O)ccc4c3)c3c(N)ncnc32)nc2cccc(F)c2c1=O

inhibition [1]: 77.3% | IC50 [2]: 416 nM
SMILES: Cc1cccc(C)c1-n1c(Cn2nc(-c3ccc4cc(O)ccc4c3)c3c(N)ncnc32)nc2cccc(F)c2c1=O

inhibition [1]: 70.8%
SMILES: Cc1ccccc1-n1c(Cn2nc(-c3cccc(OC(F)(F)F)c3)c3c(N)ncnc32)nc2cccc(F)c2c1=O

inhibition [1]: 92.7% | IC50 [2]: 31 nM
SMILES: COc1ccc(-c2nn(Cc3nc4cccc(F)c4c(=O)n3-c3ccccc3C)c3ncnc(N)c23)cn1
